From patent US8129367B2, “Compounds for the treatment of Hepatitis C” (Bristol-Myers Squibb Company, priority 2007, dated 2012)
pEC50, pIC50: −log10 of the molar value.

How the values were obtained:
HCV NS5B = biological target: T1, HCV NS5B (Hepatitis C virus genotype 1b, UniProt Q9WMX2); test: HCV NS5B RdRp enzyme assay; type: biochemical; details: HCV NS5B RdRp genotype 1b enzyme
T1 construct: The protein was expressed with an 18 amino acid C-terminal truncation to enhance the solubility; made in house; host or cells: E. coli BL21(DE3)
Procedure: HCV NS5B RdRp cloning, expression, and purification. The cDNA encoding the NS5B protein of HCV, genotype 1b, was cloned into the pET21a expression vector. The protein was expressed with an 18 amino acid C-terminal truncation to enhance the solubility. The E. coli competent cell line BL21(DE3) was used for expression of the protein. Cultures were grown at 37° C. for ˜4 hours until the cultures reached an optical density of 2.0 at 600 nm. The cultures were cooled to 20° C. and induced with 1 mM IPTG. Fresh ampicillin was added to a final concentration of 50 μg/ml and the cells were grown overnight at 20° C.
Cell pellets (3 L) were lysed for purification to yield 15-24 mgs of purified NS5B. The lysis buffer consisted of 20 mM Tris-HCl, pH 7.4, 500 mM NaCl, 0.5% triton X-100, 1 mM DTT, 1 mM EDTA, 20% glycerol, 0.5 mg/ml lysozyme, 10 mM MgCl2, 15 ug/ml deoxyribonuclease I, and Complete™ protease inhibitor tablets (Roche). After addition of the lysis buffer, frozen cell pellets were resuspended using a tissue homogenizer. To reduce the viscosity of the sample, aliquots of the lysate were sonicated on ice using a microtip attached to a Branson sonicator. The sonicated lysate was centrifuged at 100,000×g for 1 hr at 4° C. and filtered through a 0.2 μm filter unit (Corning).
The protein was purified using two sequential chromatography steps: Heparin sepharose CL-6B and polyU sepharose 4B (Pharmacia). The chromatography buffers were identical to the lysis buffer but contained no lysozyme, deoxyribonuclease I, MgCl2 or protease inhibitor and the NaCl concentration of the buffer was adjusted according to the requirements for charging the protein onto the column. Each column was eluted with a NaCl gradient which varied in length from 5-50 column volumes depending on the column type. After the final chromatography step, the resulting purity of the enzyme is >90% based on SDS-PAGE analysis. The enzyme was aliquoted and stored at −80° C.
Standard HCV NS5B RdRp enzyme assay. HCV RdRp genotype 1b assays were run in a final volume of 60 μl in 96 well plates (Corning 3600). The assay buffer is composed of 20 mM Hepes, pH 7.5, 2.5 mM KCl, 2.5 mM MgCl2, 1 mM DTT, 1.6 U RNAse inhibitor (Promega N2515), 0.01 mg/ml BSA (Sigma B6917), and 2% glycerol. All compounds were serially diluted (3-fold) in DMSO and diluted further in water such that the final concentration of DMSO in the assay was 2%. HCV RdRp genotype 1b enzyme was used at a final concentration of 28 nM. A polyA template was used at 6 nM, and a biotinylated oligo-dT12 primer was used at 180 nM final concentration. Template was obtained commercially (Amersham 27-4110). Biotinylated primer was prepared by Sigma Genosys. 3H-UTP was used at 0.6 μCi (0.29 μM total UTP). Reactions were initiated by the addition of enzyme, incubated at 30° C. for 60 min, and stopped by adding 25 μl of 50 mM EDTA containing SPA beads (4 μg/μl, Amersham RPNQ 0007). Plates were read on a Packard Top Count NXT after >1 hr incubation at room temperature.
Modified HCV NS5B RdRp enzyme assay. A modified enzyme assay was performed essentially as described for the standard enzyme assay except for the following: The biotinylated oligo dT12 primer was precaptured on streptavidin-coated SPA beads by mixing primer and beads in assay buffer and incubating at room temperature for one hour. Unbound primer was removed after centrifugation. The primer-bound beads were resuspended in 20 mM Hepes buffer, pH 7.5 and used in the assay at final concentrations of 20 nM primer and 0.67 μg/μl beads. Order of addition in the assay: enzyme (1.75 nM) was added to diluted compound followed by the addition of a mixture of template (0.36 nM), 3H-UTP (0.6 μCi, 0.29 μM), and primer-bound beads, to initiate the reaction; concentrations given are final. Reactions were allowed to proceed for 4 hours at 30° C.
IC50 values for compounds were determined using seven different [I]. […]

HCV replicon cells = test: HCV replicon FRET / luciferase assay; type: cell-based; details: Hepatitis C virus; 50% reduction in FRET or luciferase activity in HCV replicon cells
Procedure: FRET Assay Preparation. The HCV FRET screening assay was performed in 96-well cell culture plates. The FRET peptide (Anaspec, Inc.) (Taliani et al., Anal. Biochem. 1996, 240, 60-67) contains a fluorescence donor, EDANS, near one end of the peptide and an acceptor, DABCYL, near the other end. The fluorescence of the peptide is quenched by […] resonance energy transfer (RET) between the donor and the acceptor, but as the NS3 protease cleaves the peptide the products are released from RET quenching and the fluorescence of the donor becomes apparent. The assay reagent was made as follows: 5× cell Luciferase cell culture lysis reagent from Promega (#E153A) diluted to 1× with dH2O, NaCl added to 150 mM final, the FRET peptide diluted to 20 μM final from a 2 mM stock.
To prepare plates, HCV replicon cells, with or without a Renilla luciferase reporter gene, were trypsinized and plated in a 96-well plate with titrated test compounds added in columns 3 through 12; columns 1 and 2 contained a control compound (HCV control inhibitor), and the bottom row contained cells with DMSO only. The plates were then placed in a CO2 incubator at 37° C.
Assays. Subsequent to addition of the test compounds described above (FRET Assay Preparation), at various times the plate was removed and Alamar blue solution (Trek Diagnostics, #00-100) was added to measure cellular toxicity. After reading in a Cytoflour 4000 instrument (PE Biosystems), plates were rinsed with PBS and then used for FRET assay by the addition of 30 ul of the FRET peptide assay reagent described above (FRET Assay Preparation) per well. The plate was then placed into the Cytoflour 4000 instrument which had been set to 340 excite/490 emission, automatic mode for up to 20 cycles and the plate read in a kinetic mode. Typically, the signal to noise using an endpoint analysis after the reads was at least three-fold. Alternatively, after Alamar blue reading, plates were rinsed with PBS, then used for luciferase assay using the Promega Dual-Glo Luciferase Assay System or the Promega EnduRen Live Cell Substrate assay.
Compound analysis was performed by quantification of the relative HCV replicon inhibition and the relative cytotoxicity values. To calculate cytoxicity values, the average Alamar Blue fluorescence signals from the control wells were set as 100% non-toxic. The individual signals in each of the compound test wells were then divided by the average control signal and multiplied by 100% to determine […]. To calculate the HCV replicon inhibition values, an average background value was obtained from the two wells containing the highest amount of HCV control inhibitor at the end of the assay period. These numbers were similar to those obtained from naïve Huh-7 cells. The background numbers were then subtracted from the average signal obtained from the control wells and this number was used as 100% activity. The individual signals in each of the compound test wells were then divided by the averaged control values after background subtraction and multiplied by 100% to determine percent activity. EC50 values were calculated as the concentration which caused a 50% reduction in FRET or luciferase activity. The two numbers generated for the compound plate, percent cytoxicity and percent activity, were used to determine compounds of interest for further analysis.

T1 sequence (Q9WMX2 2420-2992): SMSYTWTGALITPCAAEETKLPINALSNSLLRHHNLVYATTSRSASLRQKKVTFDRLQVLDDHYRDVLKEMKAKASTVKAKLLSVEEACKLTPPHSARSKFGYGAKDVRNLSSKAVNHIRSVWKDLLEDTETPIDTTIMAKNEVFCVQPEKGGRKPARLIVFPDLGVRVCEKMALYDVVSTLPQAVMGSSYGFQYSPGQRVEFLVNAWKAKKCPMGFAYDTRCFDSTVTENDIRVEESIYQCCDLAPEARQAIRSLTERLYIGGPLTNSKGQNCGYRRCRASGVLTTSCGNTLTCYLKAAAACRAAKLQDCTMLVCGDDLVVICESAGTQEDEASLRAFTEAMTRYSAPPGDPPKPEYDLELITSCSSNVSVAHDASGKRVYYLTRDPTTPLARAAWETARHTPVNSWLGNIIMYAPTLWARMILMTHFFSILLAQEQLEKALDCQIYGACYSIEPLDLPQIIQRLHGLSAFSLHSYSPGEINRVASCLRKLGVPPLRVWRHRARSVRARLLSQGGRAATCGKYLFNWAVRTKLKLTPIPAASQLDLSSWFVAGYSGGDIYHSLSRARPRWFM

Compound | pIC50 (HCV NS5B) | pEC50 (HCV replicon cells)
COc1ccc2c(c1)C1CC1(C(=O)N1C3CCC1CN(C)C3)Cn1c-2c(C2CCCCC2)c2ccc(C(=O)NC(C)(C)C(=O)N(C)C)cc21 (stereo not drawn) | 6.30 to 8.38 | 6.30 to 8.38
COc1ccc2c(c1)C1CC1(C(=O)N1C3CCC1CN(C)C3)Cn1c-2c(C2CCCCC2)c2ccc(C(=O)NS(=O)(=O)C3(Cc4ccccc4)CC3)cc21 (stereo not drawn) | 6.30 to 8.38 | 6.30 to 8.38
CCC#CCC1(S(=O)(=O)NC(=O)c2ccc3c(C4CCCCC4)c4n(c3c2)CC2(C(=O)N3C5CCC3CN(C)C5)CC2c2cc(OC)ccc2-4)CC1 (stereo not drawn) | 6.30 to 8.38 | 6.30 to 8.38
COc1ccc2c(c1)C1CC1(C(=O)N1C3CCC1CN(C)C3)Cn1c-2c(C2CCCCC2)c2ccc(C(=O)NS(=O)(=O)C3([Si](C)(C)C)CC3)cc21 (stereo not drawn) | 6.30 to 8.38 | 6.30 to 8.38
COc1ccc2c(c1)C1CC1(C(=O)N1C3CCC1CN(C)C3)Cn1c-2c(C2CCCCC2)c2ccc(C(=O)NS(=O)(=O)C3(C(=O)c4ccccc4)CC3)cc21 (stereo not drawn) | 6.30 to 8.38 | 6.30 to 8.38
COc1ccc2c(c1)C1CC1(C(=O)N1C3CCC1CN(C)C3)Cn1c-2c(C2CCCCC2)c2ccc(C(=O)NS(=O)(=O)c3ccccc3C#N)cc21 (stereo not drawn) | 6.30 to 8.38 | 6.30 to 8.38
COCCS(=O)(=O)NC(=O)c1ccc2c(C3CCCCC3)c3n(c2c1)CC1(C(=O)N2C4CCC2CN(C)C4)CC1c1cc(OC)ccc1-3 (stereo not drawn) | 6.30 to 8.38 | 6.30 to 8.38
COc1ccc2c(c1)C1CC1(C(=O)N1C3CCC1CN(C)C3)Cn1c-2c(C2CCCCC2)c2ccc(C(=O)NS(=O)(=O)c3ccco3)cc21 (stereo not drawn) | 6.30 to 8.38 | 6.30 to 8.38
COc1ccc2c(c1)C1CC1(C(=O)N1C3CCC1CN(C)C3)Cn1c-2c(C2CCCCC2)c2ccc(C(=O)NS(=O)(=O)C3(C(=O)Nc4ccccc4)CC3)cc21 (stereo not drawn) | 6.30 to 8.38 | 6.30 to 8.38
COc1ccc2c(c1)C1CC1(C(=O)N1C3CCC1CN(C)C3)Cn1c-2c(C2CCCCC2)c2ccc(C(=O)NS(=O)(=O)c3c(C)noc3C)cc21 (stereo not drawn) | 6.30 to 8.38 | 6.30 to 8.38
COc1ccc2c(c1)C1CC1(C(=O)N1C3CCC1CN(C)C3)Cn1c-2c(C2CCCCC2)c2ccc(C(=O)NS(=O)(=O)c3cn(C)cn3)cc21 (stereo not drawn) | 6.30 to 8.38 | 6.30 to 8.38
COc1ccc2c(c1)C1CC1(C(=O)N1C3CCC1CN(C)C3)Cn1c-2c(C2CCCCC2)c2ccc(C(=O)NS(=O)(=O)c3ccc(C)cn3)cc21 (stereo not drawn) | 6.30 to 8.38 | 6.30 to 8.38
COc1ccc2c(c1)C1CC1(C(=O)N1C3CCC1CN(C)C3)Cn1c-2c(C2CCCCC2)c2ccc(C(=O)NS(=O)(=O)c3ccccc3)cc21 (stereo not drawn) | 6.30 to 8.38 | 6.30 to 8.38
COc1ccc2c(c1)C1CC1(C(=O)N1C3CCC1CN(C)C3)Cn1c-2c(C2CCCCC2)c2ccc(C(=O)NS(=O)(=O)c3cnccc3Cl)cc21 (stereo not drawn) | 6.30 to 8.38 | 6.30 to 8.38
C=CCC1(S(=O)(=O)NC(=O)c2ccc3c(C4CCCCC4)c4n(c3c2)CC2(C(=O)N3C5CCC3CN(C)C5)CC2c2cc(OC)ccc2-4)CC1 (stereo not drawn) | 6.30 to 8.38 | 6.30 to 8.38
COc1ccc2c(c1)C1CC1(C(=O)N1C3CCC1CN(C)C3)Cn1c-2c(C2CCCCC2)c2ccc(C(=O)NS(=O)(=O)c3cccs3)cc21 (stereo not drawn) | 6.30 to 8.38 | 6.30 to 8.38
COc1ccc2c(c1)C1CC1(C(=O)N1C3CCC1CN(C)C3)Cn1c-2c(C2CCCCC2)c2ccc(C(=O)NS(=O)(=O)CC3CCCO3)cc21 (stereo not drawn) | 6.30 to 8.38 | 6.30 to 8.38
COc1ccc2c(c1)C1CC1(C(=O)N1C3CCC1CN(C)C3)Cn1c-2c(C2CCCCC2)c2ccc(C(=O)NS(=O)(=O)C3CCOCC3)cc21 (stereo not drawn) | 6.30 to 8.38 | 6.30 to 8.38
COc1ccc2c(c1)C1CC1(C(=O)N1C3CCC1CN(C)C3)Cn1c-2c(C2CCCCC2)c2ccc(C(=O)NS(=O)(=O)Cc3ccccc3)cc21 (stereo not drawn) | 6.30 to 8.38 | 6.30 to 8.38
COc1ccc2c(c1)C1CC1(C(=O)N1C3CCC1CN(C)C3)Cn1c-2c(C2CCCCC2)c2ccc(C(=O)NS(=O)(=O)N3CCCO3)cc21 (stereo not drawn) | 6.30 to 8.38 | > 7.15
COc1ccc2c(c1)C1CC1(C(=O)N1C3CCC1CN(C)C3)Cn1c-2c(C2CCCCC2)c2ccc(C(=O)NS(=O)(=O)c3ccc(C)cc3OC)cc21 (stereo not drawn) | 6.30 to 8.38 | 6.30 to 8.38
COc1ccc2c(c1)C1CC1(C(=O)N1C3CCC1CN(C)C3)Cn1c-2c(C2CCCCC2)c2ccc(C(=O)NS(=O)(=O)c3nc(C(C)(C)C)cs3)cc21 (stereo not drawn) | 6.30 to 8.38 | 6.30 to 8.38
COc1ccc2c(c1)C1CC1(C(=O)N1C3CCC1CN(C)C3)Cn1c-2c(C2CCCCC2)c2ccc(C(=O)NS(=O)(=O)C3(C)CC3)cc21 (stereo not drawn) | 6.30 to 8.38 | 6.30 to 8.38
C=C(C)S(=O)(=O)NC(=O)c1ccc2c(C3CCCCC3)c3n(c2c1)CC1(C(=O)N2C4CCC2CN(C)C4)CC1c1cc(OC)ccc1-3 (stereo not drawn) | 6.30 to 8.38 | 6.30 to 8.38
COc1ccc2c(c1)C1CC1(C(=O)N1C3CCC1CN(C)C3)Cn1c-2c(C2CCCCC2)c2ccc(C(=O)NS(=O)(=O)c3cccc4cccnc34)cc21 (stereo not drawn) | 6.30 to 8.38 | 6.30 to 8.38
COCCS(=O)(=O)NC(=O)c1ccc2c(C3CCCCC3)c3n(c2c1)C[C@@]1(C(=O)N2C4CCC2CN(C)C4)C[C@H]1c1cc(OC)ccc1-3 | 6.30 to 8.38 | 6.30 to 8.38
COc1ccc2c(c1)[C@@H]1C[C@]1(C(=O)N1C3CCC1CN(C)C3)Cn1c-2c(C2CCCCC2)c2ccc(C(=O)NS(=O)(=O)CC3CCCO3)cc21 (stereo partly drawn) | 6.30 to 8.38 | 6.30 to 8.38
